Experimental data taken from ChEMBL document CHEMBL1201862, “PubChem BioAssay data set” (2004).
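Following 48 hours of exposure in 96-well plates, responses at five concentrations were used to interpolate endpoints linearly. The concentration for 50% growth inhibition is given as GI50.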 The source made the active and inactive calls. No stated cut-off is given here; in the data, active = GI50 up to about 1.1 µM and inactive = higher.

Tests used:
Test in all cases: NCI-60 cell line screen, 48 h
[1] = system: BT-549
[2] = system: HOP-92
[3] = system: EKVX
[4] = system: M14
[5] = system: U-251
[6] = system: ACHN
[7] = system: SK-MEL-2
[8] = system: SF-295
[9] = system: UACC-62
[10] = system: HL-60
[11] = system: K562
[12] = system: OVCAR-5
[13] = system: 786-0
[14] = system: NCI/ADR-RES
[15] = system: NCI-H23
[16] = system: MDA-N
[17] = system: CCRF-CEM
[18] = system: HT-29
[19] = system: LOX IMVI

Row | SMILES | GI50 [1] | GI50 [2] | GI50 [3] | GI50 [4] | GI50 [5] | GI50 [6] | GI50 [7] | GI50 [8] | GI50 [9] | GI50 [10] | GI50 [11] | GI50 [12] | GI50 [13] | GI50 [14] | GI50 [15] | GI50 [16] | GI50 [17] | GI50 [18] | GI50 [19]
1 | O=[N+]([O-])c1ccc(NC(=S)N/N=C(\c2ccccc2)c2ccccn2)cc1 | 1.63 µM (inactive) | 1.87 µM (inactive) | 0.231 µM (active) | 1.02 µM (active) | 1.36 µM (inactive) | 1.16 µM (inactive) | 1.76 µM (inactive) | 1.55 µM (inactive) | 1.24 µM (inactive) | < 0.0129 µM (active) | < 0.01 µM (active) | 1.88 µM (inactive) | 1.25 µM (inactive) | 2.04 µM (inactive) | 2.18 µM (inactive) | 1.6 µM (inactive) | < 0.0184 µM (active) |  | 
2 | O=CC1OC(=O)c2cc(O)c(O)c(O)c2-c2c(cc(O)c(O)c2O)C(=O)OC1C(O)C(O)CO (stereo not given) | 51.4 µM (inactive) | > 100 µM (inactive) | > 100 µM (inactive) | 35 µM (inactive) | 17.9 µM (inactive) | 43.6 µM (inactive) | 15.4 µM (inactive) | 27.9 µM (inactive) |  | 35.4 µM (inactive) | 21.1 µM (inactive) | > 100 µM (inactive) | > 100 µM (inactive) | 76.9 µM (inactive) | > 100 µM (inactive) | 18.7 µM (inactive) | 38.8 µM (inactive) | 22 µM (inactive) | 15.4 µM (inactive)
3 | C=CCOC1OC(CS(=O)(=O)O)C(OC(C)=O)C(OC(C)=O)C1OC(C)=O (stereo not given) | > 100 µM (inactive) | > 100 µM (inactive) |  | > 100 µM (inactive) | > 100 µM (inactive) |  | > 100 µM (inactive) | > 100 µM (inactive) | > 100 µM (inactive) | > 100 µM (inactive) | 38.1 µM (inactive) | > 100 µM (inactive) |  | > 100 µM (inactive) | > 100 µM (inactive) | > 100 µM (inactive) | > 100 µM (inactive) | > 100 µM (inactive) | > 100 µM (inactive)
4 | COc1cc(/C=N/NC(=O)c2c(Cl)c(Cl)c(Cl)c(Cl)c2-c2nc3cc(C(=O)c4ccccc4)ccc3[nH]2)ccc1O | 32.7 µM (inactive) | 76.9 µM (inactive) | 63.8 µM (inactive) | 34.3 µM (inactive) | 35.4 µM (inactive) | 60.7 µM (inactive) | 39.3 µM (inactive) | 29.9 µM (inactive) |  | 19.2 µM (inactive) | 15.8 µM (inactive) | > 100 µM (inactive) | 37.2 µM (inactive) | 20.9 µM (inactive) | 28.4 µM (inactive) | 16.1 µM (inactive) | 23 µM (inactive) | 40.1 µM (inactive) | 50.9 µM (inactive)
5 | CCOc1ccc(NC(=O)/C(=N\NC(C)(C)C)C2C(=O)Nc3ccccc3[S+]2[O-])cc1 (stereo not given) | > 100 µM (inactive) | > 100 µM (inactive) | > 100 µM (inactive) | > 100 µM (inactive) | > 100 µM (inactive) | > 100 µM (inactive) | > 100 µM (inactive) | > 100 µM (inactive) | > 100 µM (inactive) | > 100 µM (inactive) | > 100 µM (inactive) | > 100 µM (inactive) | > 100 µM (inactive) | > 100 µM (inactive) | > 100 µM (inactive) | > 100 µM (inactive) | 94.6 µM (inactive) | > 100 µM (inactive) | 
6 | CN1CC[C@@]2(c3cccc(O)c3)CC(=O)/C(=C/c3ccccc3)[C@H]1C2.[O-][Cl+3]([O-])([O-])O | 11.8 µM (inactive) | 14.9 µM (inactive) | 14.9 µM (inactive) | 10.5 µM (inactive) | 2.59 µM (inactive) | 8.11 µM (inactive) | 19.8 µM (inactive) | 11.3 µM (inactive) |  | 2.25 µM (inactive) | 2.58 µM (inactive) | 14.3 µM (inactive) | 4.44 µM (inactive) | 3.85 µM (inactive) | 16 µM (inactive) | 4.88 µM (inactive) | 3.12 µM (inactive) | 3.18 µM (inactive) | 1.7 µM (inactive)
